# In US20250281645A1, “Lentiviral Vector” (Ospedale San Raffaele S.r.l., priority 2022, published 2025):
# Assays:
# Conditions in all cases: mouse, in vivo
# Adult mice = system: Adult mice
# C57 mice = system: C57 mice
# Method: (§1) (a) Experimental design: 8 weeks old mice C57 or Ldlr^−/− (n=4-6 per each condition) are injected with Bortezomib and/or Marl and/or fasted for 24 hours, before receiving LV (dose 2.75×10^10 TU/Kg) i.v. Then, hFIX is monitored in treated mice longitudinally. (b, c) Mean with SEM of hFIX antigen measured in the plasma of LV treated mice over time (4 and 26 wk post LV timepoint). Two-way ANOVA with Dunnett's multiple comparisons test vs LV control, performed for each of the two strains used.
# (§2) According to the groups, mice were either faster for 24 hours, injected with Marl 3 hours before LV and/or injected with Bortezomib 1-hour before LV. Circulating hFIX amounts were then monitored longitudinally (FIG. 11A).
# Wild-type C57Bl/6 adults, Ldlr/adults, Alb-F8*R593C adults, Ldlr^−/− 2-week old mice and C57 BI/6 2-week old were used in these studies. Founder B6; 129S-7-Ldlrtm1 Her/J mice (referred to as Ldlr^−/−) were obtained from the Jackson Laboratories (stock #:002207). […] C57BL/6 mice were purchased from Jackson laboratories (stock #000664). […]
# (§3) hFIX ELISA assay was used to assess hFIX concentration in mouse plasma samples (Affinity Biologicals, FIX-EIA), in accordance with the manufacturer's protocol. Absorbance of each sample was determined spectrophotometrically, using a Multiskan GO microplate reader (Thermo Fisher Scientific) and normalized to antigen standard curves.
# Ldlr^−/− mice = system: Ldlr^−/− mice
# Method: as §1, §2
# Wild-type C57Bl/6 adults, Ldlr/adults, Alb-F8*R593C adults, Ldlr^−/− 2-week old mice and C57 BI/6 2-week old were used in these studies. Founder B6; 129S-7-Ldlrtm1 Her/J mice (referred to as Ldlr^−/−) were obtained from the Jackson Laboratories (stock #:002207). […] C57BL/6 mice were purchased from Jackson laboratories (stock #000664). […] LV was administered in adult mice, males and females (7-10-weeks of age), through either tail vein or retro-orbital plexus (250-500 μL/mouse). LV was administered in juvenile mice (2 weeks of age) through retro-orbital plexus (100-200 μL/mouse). Mice were bled from the retro-orbital plexus through capillary tubes. Blood was collected in 0.38% sodium citrate buffer, pH 7.4. […] For fasting experiments, mice were starved for 24-hours and then treated or not with LV. For experiments with Bortezomib (Velcade), the drug (1 mg/kg) was administered, once diluted in saline, i.v. 1 hour before LV administration. […]
# as §3
structure (smiles),measurement,setting,value
CC(C)C[C@H](NC(=O)[C@H](Cc1ccccc1)NC(=O)c1cnccn1)B(O)O [Bortezomib],VCN in KC,Adult mice,reduced VCN
same,VCN in LSEC,Adult mice,increase
same,VCN in hepatocytes,Adult mice,trend of increase
same,VCN in pDC,Adult mice,reduced VCN
same,hFIX circulating amounts versus controls,Adult mice; iv,higher than controls
same,"transgene output in combination with fasting, versus LV controls",C57 mice,11-12 fold
same,"transgene output compared to LV only, single treatment",C57 mice; iv,enhanced transgene output
same,"overall increase in transgene output, combination of fasting and Bortezomib",Ldlr^−/− mice,4.5-6 fold
same,"transgene output when combined with fasting, compared to use as single treatments",Ldlr^−/− mice,milder increase in Ldlr^−/− than C57
same,"transgene output, single treatment",Ldlr^−/− mice,give an advantage
